Assay results taken from article PMC9022596, “Convergent Evolution of Antibiotic Tolerance in Patients with Persistent Methicillin-Resistant Staphylococcus aureus Bacteremia” (Infection and Immunity, 2022).

Experiments:
Test in all cases: microbe, parasite or virus in culture
Design in all cases: Broth microdilution MIC in cation-adjusted MHB-Ca2+, growth inhibition per EUCAST reading
[1] = system: T1, Staphylococcus aureus PB0803; settings: PB0803, 16 h
T1 construct: PB0803
Experimental: (§1) MICs were measured in cation-adjusted Mueller-Hinton broth (MHB) supplemented with 50 μg/mL CaCl2 (MHB-Ca^2+) via broth microdilution in 96-well plates with an inoculum of ∼5 × 10^5 CFU per mL. Antibiotic test concentrations ranged from 0.0625 μg/mL to 32 μg/mL by 2-fold dilutions. Plates were incubated at 37°C for 16 h without shaking, and results were interpreted in accordance with European Committee on Antimicrobial Susceptibility Testing reading guidelines ([72]). S. aureus ATCC 29213 was used as a quality-control strain. TCA cycle defects have been shown previously to cause antibiotic tolerance in laboratory strains of methicillin-sensitive S. aureus (MSSA) ([13], [16]). […] To test this hypothesis, we complemented three of the clinical isolates harboring loss-of-function citZ mutations with either wild-type citZ (pOS1-citZ) or empty vector (pOS1) and then measured bacterial survival through time after exposure to ceftaroline, daptomycin, vancomycin, or the combination of daptomycin plus ceftaroline (Fig. 3). These antibiotics were chosen for their clinical relevance in the treatment of severe MRSA infection.

[2] = system: T2, Staphylococcus aureus PB0905; settings: PB0905, 16 h
T2 construct: PB0905
Experimental: as §1

[3] = system: T3, Staphylococcus aureus PB1408; settings: PB1408, 16 h
T3 construct: PB1408
Experimental: as §1

[4] = system: T4, Staphylococcus aureus PB1407; settings: PB1407, 16 h
T4 construct: PB1407
Experimental: as §1

[5] = system: T5, Staphylococcus aureus PB0113; settings: PB0113, 16 h
T5 construct: PB0113
Experimental: as §1

[6] = system: T6, Staphylococcus aureus PB0903; settings: PB0903, 16 h
T6 construct: PB0903
Experimental: as §1

[7] = system: T7, Staphylococcus aureus PB0801; settings: PB0801, 16 h
T7 construct: PB0801
Experimental: as §1

[8] = system: T8, Staphylococcus aureus PB0805; settings: PB0805, 16 h
T8 construct: PB0805
Experimental: as §1

[9] = system: T9, Staphylococcus aureus PB0601; settings: PB0601, 16 h
T9 construct: PB0601
Experimental: as §1

[10] = system: T10, Staphylococcus aureus PB0609; settings: PB0609, 16 h
T10 construct: PB0609
Experimental: as §1

[11] = system: T11, Staphylococcus aureus PB0115; settings: PB0115, 16 h
T11 construct: PB0115
Experimental: as §1

[12] = system: T12, Staphylococcus aureus PB1103; settings: PB1103, 16 h
T12 construct: PB1103
Experimental: as §1

[13] = system: T13, Staphylococcus aureus PB0112; settings: PB0112, 16 h
T13 construct: PB0112
Experimental: as §1

[14] = system: T14, Staphylococcus aureus PB0605; settings: PB0605, 16 h
T14 construct: PB0605
Experimental: as §1

[15] = system: T15, Staphylococcus aureus PB1509; settings: PB1509, 16 h
T15 construct: PB1509
Experimental: as §1

[16] = system: T16, Staphylococcus aureus PB1801; settings: PB1801, 16 h
T16 construct: PB1801
Experimental: as §1

[17] = system: T17, Staphylococcus aureus PB0203; settings: PB0203, 16 h
T17 construct: PB0203
Experimental: as §1

[18] = system: T18, Staphylococcus aureus PB0704; settings: PB0704, 16 h
T18 construct: PB0704
Experimental: as §1

`CCCCCCCCCC(=O)N[C@@H](Cc1c[nH]c2ccccc12)C(=O)N[C@H](CC(N)=O)C(=O)N[C@@H](CC(=O)O)C(=O)N[C@@H]1C(=O)NCC(=O)N[C@@H](CCCN)C(=O)N[C@@H](CC(=O)O)C(=O)N[C@H](C)C(=O)N[C@@H](CC(=O)O)C(=O)NCC(=O)N[C@H](CO)C(=O)N[C@@H]([C@H](C)CC(=O)O)C(=O)N[C@@H](CC(=O)c2ccccc2N)C(=O)O[C@@H]1C` [Daptomycin] showed an MIC ([1]; replicate 1) of 2 µg/mL, an MIC ([1]; replicate 2) of 2 µg/mL and an MIC ([2]; replicate 1) of 2 µg/mL. The MIC ([2]; replicate 2) was 2 µg/mL, the MIC ([3]; replicate 1) was 2 µg/mL and the MIC ([3]; replicate 2) was 2 µg/mL. The MIC ([4]; replicate 1) was 2 µg/mL, the MIC ([4]; replicate 2) was 2 µg/mL and the MIC ([5]; replicate 1) was 1 µg/mL. For the same compound, the MIC ([5]; replicate 2) was 1 µg/mL, the MIC ([6]; replicate 1) was 2 µg/mL and the MIC ([6]; replicate 2) was 2 µg/mL. It also gave an MIC ([7]; replicate 1) of 1 µg/mL, an MIC ([7]; replicate 2) of 1 µg/mL and an MIC ([8]; replicate 1) of 1 µg/mL. For the same compound, the MIC ([8]; replicate 2) was 1 µg/mL, the MIC ([9]; replicate 1) was 1 µg/mL and the MIC ([9]; replicate 2) was 1 µg/mL. For the same compound, the MIC ([10]; replicate 1) was 1 µg/mL, the MIC ([10]; replicate 2) was 1 µg/mL and the MIC ([11]; replicate 1) was 2 µg/mL. It also gave an MIC ([11]; replicate 2) of 2 µg/mL, an MIC ([12]; replicate 1) of 1 µg/mL and an MIC ([12]; replicate 2) of 1 µg/mL. For the same compound, the MIC ([13]; replicate 1) was 1 µg/mL, the MIC ([13]; replicate 2) was 1 µg/mL and the MIC ([14]; replicate 1) was 1 µg/mL. It also gave an MIC ([14]; replicate 2) of 2 µg/mL, an MIC ([15]; replicate 1) of 2 µg/mL and an MIC ([15]; replicate 2) of 2 µg/mL. The MIC ([16]; replicate 1) was 2 µg/mL, the MIC ([16]; replicate 2) was 2 µg/mL and the MIC ([17]; replicate 1) was 1 µg/mL. It also gave an MIC ([17]; replicate 2) of 1 µg/mL, an MIC ([18]; replicate 1) of 1 µg/mL and an MIC ([18]; replicate 2) of 1 µg/mL.

`CN[C@H](CC(C)C)C(=O)N[C@H]1C(=O)N[C@@H](CC(N)=O)C(=O)N[C@H]2C(=O)N[C@H]3C(=O)N[C@H](C(=O)N[C@H](C(=O)O)c4cc(O)cc(O)c4-c4cc3ccc4O)[C@H](O)c3ccc(c(Cl)c3)Oc3cc2cc(c3O[C@@H]2O[C@H](CO)[C@@H](O)[C@H](O)[C@H]2O[C@H]2C[C@](C)(N)[C@H](O)[C@H](C)O2)Oc2ccc(cc2Cl)[C@H]1O` [Vancomycin] was tested, and the MIC ([1]; replicate 1) was 2 µg/mL, the MIC ([1]; replicate 2) was 2 µg/mL and the MIC ([2]; replicate 1) was 2 µg/mL. For the same compound, the MIC ([2]; replicate 2) was 2 µg/mL, the MIC ([3]; replicate 1) was 4 µg/mL and the MIC ([3]; replicate 2) was 4 µg/mL. It also gave an MIC ([4]; replicate 1) of 2 µg/mL, an MIC ([4]; replicate 2) of 2 µg/mL and an MIC ([5]; replicate 1) of 2 µg/mL. For the same compound, the MIC ([5]; replicate 2) was 2 µg/mL, the MIC ([6]; replicate 1) was 2 µg/mL and the MIC ([6]; replicate 2) was 2 µg/mL. For the same compound, the MIC ([7]; replicate 1) was 2 µg/mL, the MIC ([7]; replicate 2) was 2 µg/mL and the MIC ([8]; replicate 1) was 1 µg/mL. It also gave an MIC ([8]; replicate 2) of 1 µg/mL, an MIC ([9]; replicate 1) of 2 µg/mL and an MIC ([9]; replicate 2) of 2 µg/mL. It also gave an MIC ([10]; replicate 1) of 2 µg/mL, an MIC ([10]; replicate 2) of 4 µg/mL and an MIC ([11]; replicate 1) of 2 µg/mL. It also gave an MIC ([11]; replicate 2) of 2 µg/mL, an MIC ([12]; replicate 1) of 2 µg/mL and an MIC ([12]; replicate 2) of 2 µg/mL. For the same compound, the MIC ([13]; replicate 1) was 2 µg/mL, the MIC ([13]; replicate 2) was 2 µg/mL and the MIC ([14]; replicate 1) was 2 µg/mL. For the same compound, the MIC ([14]; replicate 2) was 2 µg/mL, the MIC ([15]; replicate 1) was 2 µg/mL and the MIC ([15]; replicate 2) was 2 µg/mL. For the same compound, the MIC ([16]; replicate 1) was 2 µg/mL, the MIC ([16]; replicate 2) was 2 µg/mL and the MIC ([17]; replicate 1) was 2 µg/mL. It also gave an MIC ([17]; replicate 2) of 2 µg/mL, an MIC ([18]; replicate 1) of 2 µg/mL and an MIC ([18]; replicate 2) of 2 µg/mL.

`CCO/N=C(\C(=O)N[C@@H]1C(=O)N2C(C(=O)[O-])=C(Sc3nc(-c4cc[n+](C)cc4)cs3)CS[C@H]12)c1nsc(N)n1` [Ceftaroline] gave an MIC ([1]; replicate 1) of 0.5 µg/mL, an MIC ([1]; replicate 2) of 0.5 µg/mL and an MIC ([2]; replicate 1) of 0.5 µg/mL. For the same compound, the MIC ([2]; replicate 2) was 0.5 µg/mL, the MIC ([3]; replicate 1) was 0.5 µg/mL and the MIC ([3]; replicate 2) was 0.5 µg/mL. It also gave an MIC ([4]; replicate 1) of 0.5 µg/mL, an MIC ([4]; replicate 2) of 0.5 µg/mL and an MIC ([5]; replicate 1) of 0.5 µg/mL. For the same compound, the MIC ([5]; replicate 2) was 0.5 µg/mL, the MIC ([6]; replicate 1) was 0.5 µg/mL and the MIC ([6]; replicate 2) was 0.5 µg/mL. The MIC ([7]; replicate 1) was 0.5 µg/mL, the MIC ([7]; replicate 2) was 0.5 µg/mL and the MIC ([8]; replicate 1) was 0.5 µg/mL. It also gave an MIC ([8]; replicate 2) of 0.5 µg/mL, an MIC ([9]; replicate 1) of 0.25 µg/mL and an MIC ([9]; replicate 2) of 0.25 µg/mL. It also gave an MIC ([10]; replicate 1) of 0.25 µg/mL, an MIC ([10]; replicate 2) of 0.25 µg/mL and an MIC ([11]; replicate 1) of 0.5 µg/mL. For the same compound, the MIC ([11]; replicate 2) was 0.5 µg/mL, the MIC ([12]; replicate 1) was 0.5 µg/mL and the MIC ([12]; replicate 2) was 0.5 µg/mL. For the same compound, the MIC ([13]; replicate 1) was 0.5 µg/mL, the MIC ([13]; replicate 2) was 0.5 µg/mL and the MIC ([14]; replicate 1) was 0.25 µg/mL. For the same compound, the MIC ([14]; replicate 2) was 0.25 µg/mL, the MIC ([15]; replicate 1) was 0.5 µg/mL and the MIC ([15]; replicate 2) was 0.5 µg/mL. It also gave an MIC ([16]; replicate 1) of 0.5 µg/mL, an MIC ([16]; replicate 2) of 0.5 µg/mL and an MIC ([17]; replicate 1) of 0.5 µg/mL. The MIC ([17]; replicate 2) was 0.5 µg/mL, the MIC ([18]; replicate 1) was 0.25 µg/mL and the MIC ([18]; replicate 2) was 0.25 µg/mL.

Compound `CC(=O)NC[C@H]1CN(c2ccc(N3CCOCC3)c(F)c2)C(=O)O1` [Linezolid] has an MIC ([1]; replicate 1) of 4 µg/mL, an MIC ([1]; replicate 2) of 4 µg/mL and an MIC ([2]; replicate 1) of 4 µg/mL. For the same compound, the MIC ([2]; replicate 2) was 4 µg/mL, the MIC ([3]; replicate 1) was 4 µg/mL and the MIC ([3]; replicate 2) was 4 µg/mL. The MIC ([4]; replicate 1) was 4 µg/mL, the MIC ([4]; replicate 2) was 4 µg/mL and the MIC ([5]; replicate 1) was 4 µg/mL. It also gave an MIC ([5]; replicate 2) of 4 µg/mL, an MIC ([6]; replicate 1) of 4 µg/mL and an MIC ([6]; replicate 2) of 4 µg/mL. It also gave an MIC ([7]; replicate 1) of 4 µg/mL, an MIC ([7]; replicate 2) of 4 µg/mL and an MIC ([8]; replicate 1) of 4 µg/mL. It also gave an MIC ([8]; replicate 2) of 4 µg/mL, an MIC ([9]; replicate 1) of 4 µg/mL and an MIC ([9]; replicate 2) of 4 µg/mL. For the same compound, the MIC ([10]; replicate 1) was 4 µg/mL, the MIC ([10]; replicate 2) was 4 µg/mL and the MIC ([11]; replicate 1) was 4 µg/mL. For the same compound, the MIC ([11]; replicate 2) was 4 µg/mL, the MIC ([12]; replicate 1) was 4 µg/mL and the MIC ([12]; replicate 2) was 4 µg/mL. The MIC ([13]; replicate 1) was 4 µg/mL, the MIC ([13]; replicate 2) was 4 µg/mL and the MIC ([14]; replicate 1) was 4 µg/mL. For the same compound, the MIC ([14]; replicate 2) was 4 µg/mL, the MIC ([15]; replicate 1) was 4 µg/mL and the MIC ([15]; replicate 2) was 4 µg/mL. The MIC ([16]; replicate 1) was 4 µg/mL, the MIC ([16]; replicate 2) was 4 µg/mL and the MIC ([17]; replicate 1) was 4 µg/mL. The MIC ([17]; replicate 2) was 4 µg/mL, the MIC ([18]; replicate 1) was 4 µg/mL and the MIC ([18]; replicate 2) was 4 µg/mL.
